Consider 20 compounds from ChEMBL document CHEMBL1155068, “Balancing oral exposure with Cyp3A4 inhibition in benzimidazole-based IGF-IR inhibitors” (Bioorg Med Chem Lett, 2008).

Each structure is given as a SMILES string.

The data set is described as follows: Metabolic stability in mouse liver microsomes. In kind it is ADME, Microsome.
In turn, `Cc1cc(N2CCC(N3CCN(C(=O)C4CC4)CC3)CC2)cc2[nH]c(-c3c(NC[C@@H](O)c4cccc(Cl)c4)cc[nH]c3=O)nc12` yielded a Stability of under 0.1 nmol/min/mg. Under `Cc1cc(N2CCC(N3CCN(C(=O)N4CCN(C)CC4)CC3)CC2)cc2[nH]c(-c3c(NC[C@@H](O)c4cccc(Cl)c4)cc[nH]c3=O)nc12` stands under 0.1 nmol/min/mg; under `Cc1cc(N2CCC(N3C[C@@H](C)O[C@@H](C)C3)CC2)cc2[nH]c(-c3c(NC[C@@H](O)c4cccc(Cl)c4)cc[nH]c3=O)nc12`, under 0.1 nmol/min/mg; under `Cc1cc(N2CCC(O)CC2)cc2[nH]c(-c3c(NC[C@@H](O)c4cccc(Cl)c4)cc[nH]c3=O)nc12`, 0.1 nmol/min/mg. On to `Cc1cc(N2CCC(N3CCN(C)CC3)CC2)cc2[nH]c(-c3c(NC[C@@H](O)c4cccc(Cl)c4)cc[nH]c3=O)nc12`, for which the Stability is under 0.1 nmol/min/mg. `Cc1cc(N2CCC(NC(=O)C3CC3)CC2)cc2[nH]c(-c3c(NC[C@@H](O)c4cccc(Cl)c4)cc[nH]c3=O)nc12` had a Stability of 0.1 nmol/min/mg.

With `Cc1cc(N2CCC(N3CCN(C(=O)N4CCOCC4)CC3)CC2)cc2[nH]c(-c3c(NC[C@@H](O)c4cccc(Cl)c4)cc[nH]c3=O)nc12`, the Stability is under 0.1 nmol/min/mg.

`Cc1cc(N2CCC(N3CCOCC3)CC2)cc2[nH]c(-c3c(NC[C@@H](O)c4cccc(Cl)c4)cc[nH]c3=O)nc12` yielded a Stability of 0.1 nmol/min/mg. Consider `COCCOCC(=O)N1CCN(C2CCN(c3cc(C)c4nc(-c5c(NC[C@@H](O)c6cccc(Cl)c6)cc[nH]c5=O)[nH]c4c3)CC2)CC1`, for which the Stability is under 0.1 nmol/min/mg. Under `COCC(=O)N1CCN(C2CCN(c3cc(C)c4nc(-c5c(NC[C@@H](O)c6cccc(Cl)c6)cc[nH]c5=O)[nH]c4c3)CC2)CC1` stands under 0.1 nmol/min/mg. The compound `Cc1cc(N2CCOCC2)cc2[nH]c(-c3c(NC[C@@H](O)c4cccc(Cl)c4)cc[nH]c3=O)nc12` had a Stability of 0.1 nmol/min/mg.

`Cc1cc(N2CCC(OCCO)CC2)cc2[nH]c(-c3c(NC[C@@H](O)c4cccc(Cl)c4)cc[nH]c3=O)nc12` came in with a Stability of over 0.2 nmol/min/mg. Under `Cc1cc(N2CCC(N3CCN(C(=O)OCCO)CC3)CC2)cc2[nH]c(-c3c(NC[C@@H](O)c4cccc(Cl)c4)cc[nH]c3=O)nc12` stands under 0.1 nmol/min/mg; under `COC1CCN(c2cc(C)c3nc(-c4c(NC[C@@H](O)c5cccc(Cl)c5)cc[nH]c4=O)[nH]c3c2)CC1`, over 0.2 nmol/min/mg; under `COC(=O)N1CCN(C2CCN(c3cc(C)c4nc(-c5c(NC[C@@H](O)c6cccc(Cl)c6)cc[nH]c5=O)[nH]c4c3)CC2)CC1`, under 0.1 nmol/min/mg. As for `COCCOC1CCN(c2cc(C)c3nc(-c4c(NC[C@@H](O)c5cccc(Cl)c5)cc[nH]c4=O)[nH]c3c2)CC1`, the Stability came to 0.1 nmol/min/mg. The value for `COCCOC(=O)N1CCN(C2CCN(c3cc(C)c4nc(-c5c(NC[C@@H](O)c6cccc(Cl)c6)cc[nH]c5=O)[nH]c4c3)CC2)CC1` was under 0.1 nmol/min/mg; that for `COC(=O)NC1CCN(c2cc(C)c3nc(-c4c(NC[C@@H](O)c5cccc(Cl)c5)cc[nH]c4=O)[nH]c3c2)CC1` was 0.1 nmol/min/mg; that for `Cc1cc(N2CCC3(CC2)OCCO3)cc2[nH]c(-c3c(NC[C@@H](O)c4cccc(Cl)c4)cc[nH]c3=O)nc12` was 0.1 nmol/min/mg. On to `CC(=O)N1CCN(C2CCN(c3cc(C)c4nc(-c5c(NC[C@@H](O)c6cccc(Cl)c6)cc[nH]c5=O)[nH]c4c3)CC2)CC1`, for which the Stability was under 0.1 nmol/min/mg.
